Values of other authors, collected in patent US7884091B2, “Methods for treating delirium using glucocorticoid receptor-specific antagonists” (Corcept Therapeutics, Inc., priority 2001, dated 2011).

Details: in one study; Kawai (1989) supra

daily dose excreted in the urine: less than 0.5%
SMILES: CC#C[C@]1(O)CC[C@H]2[C@@H]3CCC4=CC(=O)CCC4=C3[C@@H](c3ccc(N(C)C)cc3)C[C@@]21C [mifepristone, 17-beta-hydroxy-11-beta-(4-dimethyl-aminophenyl)-17-alpha-(1-propynyl)-estra-4,9-dien-3-one]
